These results are taken from patent publication US11548875B2, “Inhibitor compounds for male contraception” (University of Washington, priority 2018, dated 2023).

Experiment [1] has as its target T1, ALDH1A2 (Homo sapiens, UniProt O94788).
T1 sequence (O94788 1-518): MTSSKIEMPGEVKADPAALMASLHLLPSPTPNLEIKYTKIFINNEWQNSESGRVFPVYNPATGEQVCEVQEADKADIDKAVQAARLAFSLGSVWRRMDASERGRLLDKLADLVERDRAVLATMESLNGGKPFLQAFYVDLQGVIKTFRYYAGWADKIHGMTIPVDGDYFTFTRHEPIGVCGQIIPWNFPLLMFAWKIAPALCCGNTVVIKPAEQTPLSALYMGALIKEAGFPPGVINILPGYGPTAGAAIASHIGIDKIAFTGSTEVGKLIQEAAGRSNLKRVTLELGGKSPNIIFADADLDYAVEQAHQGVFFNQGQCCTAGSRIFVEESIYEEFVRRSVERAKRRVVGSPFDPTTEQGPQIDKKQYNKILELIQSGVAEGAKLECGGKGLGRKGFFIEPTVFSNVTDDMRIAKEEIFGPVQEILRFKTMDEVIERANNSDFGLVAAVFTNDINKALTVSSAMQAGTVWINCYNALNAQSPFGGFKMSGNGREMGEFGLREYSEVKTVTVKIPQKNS
Description: Cell-based enzyme assay, retinoic acid production in ALDH1A2/H1299 cells. The gist of the method:
(§1)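 ALDH1A1- or ALDH1A2-stably transfected H1299 cells grown to confluence, then treated 20 h in serum-free RPMI-1640 with 2 μM all-trans-retinal plus varying inhibitor concentrations at 37 °C. Retinoic acid in cells and media quantified; inhibition from RA levels with vs without inhibitor.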

The target in experiment [2] is T1, ALDH1A2. The experiment in a line: Inhibitor screening using purified enzymes: ALDH1A2 activity, retinoic acid production by HPLC (5 uM initial screen, then IC50). Further details: histidine-tag (C); made in house; host or cells: bacterial expression (pET28 vector, IPTG induction). Particulars: purified enzyme. Format: biochemical. An outline of the steps: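 Purified His-tagged human enzymes in 10 mM HEPES pH 8.0, 150 mM KCl, 2 mM EDTA with 2 mM NAD, all-trans-retinal substrate; retinoic acid quantified by HPLC. ALDH1A2 initial screen: 1 μg enzyme, 5 μM retinal, 5 μM inhibitor, 15 min, 37° C; IC50 runs: 0.5 μg enzyme, 0.5 μg retinal, 5 min, 37° C.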

A further experiment deals with T2, ALDH1A1 (Homo sapiens, UniProt P00352).
T2 sequence (P00352 1-501): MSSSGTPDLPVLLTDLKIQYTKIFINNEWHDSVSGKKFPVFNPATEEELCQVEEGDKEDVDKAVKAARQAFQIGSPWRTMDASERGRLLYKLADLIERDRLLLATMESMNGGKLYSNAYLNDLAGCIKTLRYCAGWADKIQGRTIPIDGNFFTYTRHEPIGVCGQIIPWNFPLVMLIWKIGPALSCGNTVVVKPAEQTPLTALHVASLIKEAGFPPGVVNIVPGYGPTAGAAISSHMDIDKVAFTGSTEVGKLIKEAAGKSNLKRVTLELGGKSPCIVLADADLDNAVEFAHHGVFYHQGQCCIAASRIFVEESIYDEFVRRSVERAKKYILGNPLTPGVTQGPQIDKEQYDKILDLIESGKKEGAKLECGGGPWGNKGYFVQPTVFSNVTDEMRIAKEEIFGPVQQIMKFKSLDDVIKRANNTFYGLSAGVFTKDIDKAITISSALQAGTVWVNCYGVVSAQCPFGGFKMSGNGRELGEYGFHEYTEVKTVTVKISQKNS
The experiment in a line: Cell-based enzyme assay, retinoic acid production in ALDH1A1/H1299 cells. An outline of the steps: as §1

Structures can show the parent of a compound that is named as a salt. Where two headings read alike, the source gives them in different places.

One may read the EC50 as the concentration that produces a half-maximal response. As a reminder, the IC50 is the midpoint of a concentration-inhibition curve. Read a high IC50 as a need for much substance.

For the compound “3-(4-Acryloylphenyl)-1-phenyl-1H-pyrazole-4-carbaldehyde [Compound 309]”, the EC50 on ALDH1A2 [1] (cell-based) came to 0.87 µM; at ALDH1A1 (cell-based), 0.73 µM. At ALDH1A2 [2], the IC50 came out at 0.005 µM.
“3-{4-[(Chloroacetyl)amino]phenyl}-N-(3-fluorophenyl)-1-phenyl-1H-pyrazole-4-carboxamide [Compound 294]”: the EC50 at ALDH1A2 [1] (cell-based) and on ALDH1A1 (cell-based) was below 0.005 µM each time. This compound also came in with an IC50 against ALDH1A2 [2] of 0.025 µM.
`O=Cc1cn(-c2ccccc2)nc1-c1ccc(O)cc1` [Cmpd 34]: the EC50 on ALDH1A2 [1] (cell-based) worked out at 0.798 µM; at ALDH1A1 (cell-based) it was 0.469 µM. Moreover, the IC50 at ALDH1A2 [2] came out at 1.73 µM.
On the same counts, the results for `CS(=O)(=O)c1ccc(-c2nn(-c3ccccc3)cc2C(=O)Nc2cccc(F)c2)cc1` [Compound 178, 3-(4-(Methylsulfonyl)phenyl)-N-(3-fluorophenyl)-1-phenyl-1H-pyrazole-4-carboxamide] are 0.065 µM, 5.5 µM and 0.192 µM.
For `CS(=O)(=O)c1ccc(-c2nn(-c3ccccc3)cc2C(=O)Nc2cccc(O)c2)cc1` [Compound 211, 3-(4-(Methylsulfonyl)phenyl)-N-(3-hydroxyphenyl)-1-phenyl-1H-pyrazole-4-carboxamide], in that order: 0.12 µM, 2 µM and 0.081 µM.
On the same counts, the results for `CS(=O)(=O)c1ccc(-c2nn(-c3ccccc3)cc2C(=O)Nc2cccc(Cl)c2)cc1` [Compound 219, 3-(4-(Methylsulfonyl)phenyl)-N-(3-chlorophenyl)-1-phenyl-1H-pyrazole-4-carboxamide] are 0.11 µM, above 20 µM and 0.606 µM.
For `CCS(=O)(=O)c1ccc(-c2nn(-c3ccccc3)cc2C(=O)Nc2cccc(F)c2)cc1` [Compound 223, 3-(4-(Ethylsulfonyl)phenyl)-N-(3-fluorophenyl)-1-phenyl-1H-pyrazole-4-carboxamide], the results for the EC50 on ALDH1A2 [1] (cell-based) and at ALDH1A1 (cell-based) were 0.088 µM and 1.3 µM, respectively. The compound further had an IC50 against ALDH1A2 [2] of 0.208 µM.
For `CS(=O)(=O)c1ccc(-c2nn(-c3ccccc3)cc2C(=O)Nc2cccc(F)c2O)cc1` [Compound 231, N-(3-Fluoro-2-hydroxyphenyl)-3-[4-(methylsulfonyl)phenyl]-1-phenyl-1H-pyrazole-4-carboxamide], in that order: 0.069 µM, above 20 µM and 0.323 µM.
As for `CS(=O)(=O)c1ccc(-c2nn(-c3ccc(Cl)cc3)cc2C(=O)Nc2ccccc2O)cc1` [Compound 233, N-(2-Hydroxyphenyl)-3-[4-(methylsulfonyl)phenyl]-1-(4-chloropheny)-1H-pyrazole-4-carboxamide], the values for the EC50 on ALDH1A2 [1] (cell-based) and at ALDH1A1 (cell-based) were 0.055 µM and 13.2 µM, respectively. Also, the IC50 against ALDH1A2 [2] is 0.795 µM.
On the same counts, the results for `CS(=O)(=O)c1ccc(-c2nn(-c3ccc(F)cc3)cc2C(=O)Nc2cccc(F)c2)cc1` [Compound 241, N-(3-Fluorophenyl)-3-[4-(methylsulfonyl)phenyl]-1-(4-fluorophenyl)-1H-pyrazole-4-carboxamide] are 0.056 µM, 10.9 µM and 0.092 µM.
Regarding `CS(=O)(=O)c1ccc(-c2nn(-c3ccc(OC(F)(F)F)cc3)cc2C(=O)Nc2cccc(F)c2)cc1` [Compound 258, N-(3-Fluorophenyl)-1-(4-trifluoromethoxypheny)-3-[4-(methylsulfonyl)phenyl]-1H-pyrazole-4-carboxamide], the EC50 at ALDH1A2 [1] (cell-based) was 0.051 µM; on ALDH1A1 (cell-based) it was 26.4 µM. At ALDH1A2 [2], this compound came in with an IC50 of 0.112 µM.
On the same counts, the results for `CS(=O)(=O)c1ccc(-c2nn(-c3ccc(C#N)cc3)cc2C(=O)Nc2cccc(C(F)(F)F)c2)cc1` [Compound 262, 1-(4-Cyanophenyl)-N-(3-trifluoromethylphenyl)-3-[4-(methylsulfonyl)phenyl]-1H-pyrazole-4-carboxamide] are 0.016 µM, above 20 µM and 0.352 µM.
On to `CS(=O)(=O)c1ccc(-c2nn(-c3cccc(F)c3)cc2C(=O)Nc2cccc(C(F)(F)F)c2)cc1` [Compound 266, 1-(3-Fluorophenyl)-N-(3-trifluoromethylphenyl)-3-[4-(methylsulfonyl)phenyl]-1H-pyrazole-4-carboxamide], for which the EC50 at ALDH1A2 [1] (cell-based) is 0.354 µM; at ALDH1A1 (cell-based), above 20 µM. The compound further showed an IC50 against ALDH1A2 [2] of 0.029 µM.
On the same counts, the results for `CS(=O)(=O)c1ccc(-c2nn(-c3cccc(C#N)c3)cc2C(=O)Nc2cccc(F)c2)cc1` [Compound 268, 1-(3-Cyanophenyl)-N-(3-fluorophenyl)-3-[4-(methylsulfonyl)phenyl]-1H-pyrazole-4-carboxamide] are 0.026 µM, 2.43 µM and 0.84 µM.
For `CS(=O)(=O)c1ccc(-c2nn(-c3cccc(C#N)c3)cc2C(=O)Nc2ccc(F)c(F)c2)cc1` [Compound 269, 1-(3-Cyanophenyl)-N-(3,4-difluorophenyl)-3-[4-(methylsulfonyl)phenyl]-1H-pyrazole-4-carboxamide], in that order: 0.045 µM, 3.56 µM and 0.238 µM.
On the same counts, the results for `N#Cc1ccc(-n2cc(C(=O)Nc3cccc(F)c3)c(-c3ccc(NC(=O)C(Cl)Cl)cc3)n2)cc1` [Compound 316a, 3-(4-Dichloroacetamidophenyll)-N-(3-fluorophenyl)-1-(4-cyanophenyl)-1H-pyrazole-4-carboxamide] are 0.013 µM, 0.18 µM and 0.037 µM.
For `CCc1ccc(C(=O)N2CCN(c3ccc([N+](=O)[O-])c(N4CCCC4)c3)CC2)s1` [Compound 323, {4-[4-Nitro-3-(pyrrolidin-1-yl)phenyl]piperazin-1-yl}(5-ethylthiophen-2-yl)methanone], the EC50 on ALDH1A2 [1] is 0.457 µM; on ALDH1A1, 0.195 µM. For the same compound, the IC50 on ALDH1A2 [2] worked out at 0.103 µM.
For the compound `CCOc1ccsc1C(=O)N1CCN(c2ccc([N+](=O)[O-])c(N3CCCC3)c2)CC1` [Compound 326, {4-[4-Nitro-3-(pyrrolidin-1-yl)phenyl]piperazin-1-yl}(3-ethoxythiophen-2-yl)methanone], the values for the EC50 on ALDH1A2 [1] and at ALDH1A1 were 0.11 µM and 0.44 µM, respectively. This compound also yielded an IC50 against ALDH1A2 [2] of 0.058 µM.
As for `Cc1cc(C(=O)N2CCN(c3ccc([N+](=O)[O-])c(N4CCCC4)c3)CC2)sc1C` [Compound 327, {4-[4-Nitro-3-(pyrrolidin-1-yl)phenyl]piperazin-1-yl}(4,5-dimethylthiophen-2-yl)methanone], the EC50 at ALDH1A2 [1] is 0.862 µM; at ALDH1A1, above 0.5 µM. On ALDH1A2 [2], this compound had an IC50 of 0.313 µM.
As to `COc1ccsc1C(=O)N1CCN(c2ccc([N+](=O)[O-])c(N3CCCC3)c2)CC1` [Compound 329, {4-[4-Nitro-3-(pyrrolidin-1-yl)phenyl]piperazin-1-yl}(3-methoxythiophen-2-yl)methanone], the EC50 at ALDH1A2 [1] and at ALDH1A1 was below 0.5 µM in each case. The IC50 at ALDH1A2 [2] stood at 0.079 µM.
With `Nc1ccsc1C(=O)N1CCN(c2ccc([N+](=O)[O-])c(N3CCCC3)c2)CC1` [Compound 331, {4-[4-Nitro-3-(pyrrolidin-1-yl)phenyl]piperazin-1-yl}(3-aminothiophen-2-yl)methanone hydrochloride], the EC50 at ALDH1A2 [1] turned out to be 0.121 µM; at ALDH1A1 it was 0.088 µM. This compound showed an IC50 against ALDH1A2 [2] of 0.062 µM.
For `CC(=O)Nc1ccsc1C(=O)N1CCN(c2ccc([N+](=O)[O-])c(N3CCCC3)c2)CC1` [Compound 332], in that order: 0.437 µM, 0.413 µM and 0.388 µM.
For `O=C(c1ccc(F)s1)N1CCN(c2ccc([N+](=O)[O-])c(N3CCCC3)c2)CC1` [Compound 334, {4-[4-Nitro-3-(pyrrolidin-1-yl)phenyl]piperazin-1-yl}(5-fluorothiophen-2-yl)methanone], in that order: 0.377 µM, 0.26 µM and 1.33 µM.
